Biological target: T1, Solute carrier family 22 member 2 (Rattus norvegicus, UniProt Q9R0W2)
T1 sequence (Q9R0W2 whole entry): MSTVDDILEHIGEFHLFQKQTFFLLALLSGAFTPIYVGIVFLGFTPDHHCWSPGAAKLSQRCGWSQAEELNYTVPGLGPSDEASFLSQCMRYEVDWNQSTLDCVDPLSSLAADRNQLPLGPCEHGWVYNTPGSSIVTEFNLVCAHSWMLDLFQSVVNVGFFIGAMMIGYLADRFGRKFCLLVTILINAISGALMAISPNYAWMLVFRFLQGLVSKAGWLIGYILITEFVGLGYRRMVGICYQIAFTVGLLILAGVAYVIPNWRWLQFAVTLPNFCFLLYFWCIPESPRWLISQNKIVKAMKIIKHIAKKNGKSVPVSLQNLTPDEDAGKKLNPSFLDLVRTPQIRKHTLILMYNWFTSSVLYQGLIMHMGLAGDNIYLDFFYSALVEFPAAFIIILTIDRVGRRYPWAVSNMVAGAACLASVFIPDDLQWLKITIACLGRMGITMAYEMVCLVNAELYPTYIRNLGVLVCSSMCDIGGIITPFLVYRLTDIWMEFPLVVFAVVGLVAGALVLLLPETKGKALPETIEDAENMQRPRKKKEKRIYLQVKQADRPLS
Test: TP_TRANSPORTER: inhibition of TEA uptake (apical to cell) in OCT2-expressing NIH3T3 cells

Question: Which Ki does the source give for `[NH2][Pt]([NH2])([Cl])[Cl]` [cis-Platinum diamminedichloride] here?
Answer: 925 µM
